Key:
[1] = system: LX-2 human hepatic stellate cells; assay: qPCR and immunoblotting of gene expression in LX-2 cells; type: cell-based
Protocol: LX-2 human hepatic stellate cells (Yale Liver Center) were maintained in DMEM (Gibco, 11965-092) supplemented with 10% heat-inactivated fetal bovine serum (Gibco, 26140-079) and 1% PS (penicillin and streptomycin) at 37° C. in 5% humidified CO2 tissue culture incubator. Generally, cells were plated and transfected in a 24-well plate scale. For transfection with siRNA, let-7, or iLet7, 10 pmol of siTET3 (or siCon), let-7 (or miCon), or iLet7 (iCon) were mixed with 25 μl of OPTI-MEM (Gibco, 31985-070) by gentle pipetting. In parallel, 1 μl of Lipofectamine 3000 (ThermoFisher Scientific, L3000015) was mixed with 25 μl of OPTI-MEM. Then, the contents from the two tubes were mixed by gentle pipetting. After incubation for 5 min at RT, the resulting 50 μl solution was used to resuspend cell pellet (5×10^4 cells). After incubation at RT for 10 min, 450 μl of growth medium was added and the cell suspension was transferred into one well of a 24-well plate. For transfection with TET3-expression plasmid pTET3 (pcDNA-Flag-Tet3, Addgene plasmid #60940, (30)) or control vector, 5×10^4 cells per well were seeded in a 24-well plate the night before transfection. The next day, 0.75 μg of pTET3 (or Vec) were mixed with 1 μl of P3000 in 25 μl of OPTI-MEM by gentle pipetting. In parallel, 0.5 μl of Lipofectamine 3000 were mixed with 25 μl of OPTI-MEM. The contents from the two tubes were combined by gentle pipetting and incubated for 5 min at RT. The resulting 50 μl of transfection solution was added to each well of cells seeded in a 24-well plate the night before and from which the growth medium had been removed. After 6 h of incubation in a tissue culture incubator, 500 μl of growth medium were added to each well of cells. For TGF-β1 (Sigma, USA) treatment experiments, transfected cells were incubated in 500 μl of serum-free DMEM containing 5 ng/mL TGF-β1 (diluted with HCl) or HCl (as control) for 24 h or 48 h as indicated.
Total RNA was extracted from cultured cells or liver tissue samples using PureLink RNA Mini Kit (Ambion, 12183018A). 0.8 μg of total RNA was reverse transcribed to cDNA in a reaction volume of 10 μl using PrimeScript RT Reagent Kit (TAKARA, RR037A). Quantitative real-time PCR reactions were carried out using iQSYBRGreen (Bio-Rad) in a Bio-Rad iCycler. Gene expression levels were normalized against housekeeping genes HPRT1 and RPLP0.
For liver tissue samples, 5-10 mg of tissues were homogenized by sonication (Qsonica, Model Q125) in 150 μl of 2×SDS-sample buffer. Samples were immediately heated at 100° C. for 3 min with occasional vertexing. Then, 100 μl of 2×SDS-sample buffer was added to each sample and the 250 μl of tissue lysate were further homogenized by sonication and heated again at 100° C. for 3-5 min with vertexing once every 15 sec. Samples (further diluted at 1:1 with 2×SDS-sample buffer before loading) were loaded 5-10 μl per well onto a 4-15% gradient SDS gel, followed by Western blot analysis. Image J was used to quantify the protein bands.

[2] = system: UtLM and ht-UtLM leiomyoma cells; assay: RT-qPCR and Western blot of gene expression in leiomyoma cells; type: cell-based, human
Excerpt: Antibodies for TET3 (GeneTex, GTX121453; used at a dilution of 1/500), TGFBR2 (Abcam, ab184948; used at a dilution of 1/1000), TSP1 (Abcam, ab85762; used at a dilution of 1/500), MED12 (Novus Biological, NB100-2357; used at a dilution of 1/500), HMGA2 (Proteintech, 20795-1-AP; used at a dilution of 1/500), GRAF1 (Cell Signaling, 8802; used at a dilution of 1/500), SPARC (Cell Signaling, 8725; used at a dilution of 1/500), COL3A1 (LS-Bio, LS-C159386; used at a dilution of 1/1000), COL4A1 (LS-Bio, LS-C100552; used at a dilution of 1/500), COL5A2 (Origene, TA809611; used at a dilution of 1/500) and GAPDH (Abcam, ab128915; used at a dilution of 1/10000) were purchased. Human H19 siRNA (siH19) and control siRNA (siCon) were previously described (Ghazal S et al., 2015, EMBO Mol Med 7:996-1003). siTET3 (Ambion, 4392420/s47239), estradiol ([…], Sigma), and progesterone ([…], Sigma) were purchased. Estradiol and progesterone were dissolved in DMSO and used at a final concentration of 10^-8M. ht-UtLM cells tested negative for mycoplasma contamination were maintained in MEM (Sigma, #M3024) supplemented with 20% fetal bovine serum, 1×MEM Vitamin Solution (Invitrogen #11120-052), 1×MEM Amino Acids Solution (Invitrogen, #11130-051), and 1×MEM Non-Essential Amino Acids (Invitrogen #11140-050). Primary UtLM-1 and UtLM-2 cells were maintained in DMEM (Gibco, #10567014) supplemented with 20% fetal bovine serum, and 1% penicillin/streptomycin, 1% amphotericin B. All cells were transfected in a 24-well plate scale. To prepare siRNA transfection solution for each well, 10 pmol (5 pmol for primary cells) of siCon, siH19, or siTET3 were mixed with 25 μl of OPTI-MEM by gentle pipetting. In parallel, 1 μl of Lipofectamine 3000 was mixed with 25 μl of OPTI-MEM. Following 5 min of incubation at room temperature, the two were mixed by gentle inverting and incubated for 10 min at room temperature to allow siRNA/lipid complexes to form. At the end of incubation, the 50 μl of transfection solution was used to re-suspend the cell pellet (3×10^4 cells). After incubation at room temperature for 10 min, growth medium was added at a ratio of 1:9 (1 volume of transfection solution/9 volumes of growth medium), and the cell suspension was transferred to a new culture dish. After overnight incubation in a tissue culture incubator, the medium was replaced with fresh growth medium. For iLet 7 rescue experiments, 10 pmol of siCon/siH19 and 10 pmol of iCon/iLet7 were used for each well of 3×10^4 cells. RNA, genomic DNA, and protein were extracted and analyzed at the indicated time points following transfection.

siTET3: TET3-specific siRNA (human), Ambion 4392420/s47239 (sense CAGCAACUCCUAGAACUGATT; antisense UCAGUUCUAGGAGUUGCUGGA; chemistry not given here)
expression of TGFB1, TSP1 and TGFBR2 (mRNA and protein) ([1]; 48 h post-transfection, vs siCon or Vec): decreased expression of TGFB1, TSP1 and TGFBR2 | TGF-β1-induced TGF-β signaling and profibrotic gene expression ([1]; TET3 siRNA 24 h, then TGF-β1 5 ng/mL 24 h): the effects were no longer observed | protein levels of MED12, TGFBR2, TSP1, GRAF1, SPARC, COL5A2, COL4A1, COL3A1 (Western blot) ([2]; UtLM cells, vs siCon): all decreased | MED12 expression ([2]; ht-UtLM cells): lack of effects | mRNA expression of TET3, MED12, TGFBR2, TSP1, GRAF1, SPARC, COL3A1, COL4A1 and COL5A2 ([2]; primary human leiomyoma cells and ht-UtLM, 48 h, vs siCon): results similar to those of H19 knockdown were obtained
